Values of other authors in publication PMC3160472 (Nature protocols, 2011).
Like-named read-outs stand apart in the source and are kept apart here.

Experiments:
[1] = biological target: NT (N-terminal domain of IP3 receptor, residues 1-604 of IP3R1); conditions: for Kd: read-out: KD, NT, 3H-IP3, Ca2+-free CLM, 4 °C, equilibrium competition binding with 3H-IP3, mean ± S.E.M., n = 3
[2] = biological target: IBC (IP3-binding core of IP3 receptor, residues 224-604 of IP3R1); conditions: read-out: KD, IBC, 3H-IP3; Ca2+-free CLM, 4 °C, equilibrium competition binding with 3H-IP3, mean ± S.E.M., n = 3
[3] = biological target: IBC (IP3-binding core of IP3 receptor, residues 224-604 of IP3R1); conditions: read-out: KD, IBC, FP, Ca2+-free CLM, 4 °C, mean ± S.E.M., n = 3
[4] = biological target: NT (N-terminal domain of IP3 receptor, residues 1-604 of IP3R1); conditions: read-out: KD, NT, FP, Ca2+-free CLM, 4 °C, mean ± S.E.M., n = 3
[5] = biological target: NT (N-terminal domain of IP3 receptor, residues 1-604 of IP3R1); conditions: read-out: KD, saturation radioligand binding; 'purified' NT, 3H-IP3, in TEM (pH 8.3)

Nc1ncnc2c1ncn2[C@@H]1O[C@H](CO)[C@@H](O[C@H]2O[C@H](CO)[C@@H](OP(=O)(O)O)[C@H](OP(=O)(O)O)[C@H]2O)[C@H]1OP(=O)(O)O [Adenophostin A]
Kd [1]: 6.2 ± 1.6 nM | Kd [2]: 0.7 ± 0.1 nM | Kd [3]: 0.9 ± 0.1 nM | Kd [4]: 8.6 ± 0.2 nM

O=P([O-])([O-])O[C@@H]1[C@H](O)[C@H](O)[C@@H](OP(=O)([O-])[O-])[C@H](OP(=O)([O-])[O-])[C@H]1O.[K+].[K+].[K+].[K+].[K+].[K+] [IP3, D-myo-inositol-1,4,5-trisphosphate, hexapotassium salt]
Kd [5]: 2.2 ± 0.5 nM | KD for the NT in TEM relative to Ca2+-free CLM ([1]; TEM (pH 8.3) versus Ca2+-free CLM (pH 7.0), printed as higher in TEM): ~ 40 fold | Kd [1]: 65 ± 8 nM | Kd [2]: 8.7 ± 1.8 nM | Kd [3]: 9.2 ± 0.8 nM | Kd [4]: 95 ± 7 nM

D-2-O-(2-(3-(5-fluoresceinyl)thioureido)ethyl)-myo-inositol 1,4,5-trisphosphate [FITC-IP3]
Kd [1]: 11.8 ± 0.2 nM | Kd [2]: 2 ± 0.2 nM | Kd [3]: 3 ± 0.1 nM | Kd [4]: 12.5 ± 0.6 nM
